This assay deals with PDE1 (3′,5′-cyclic-nucleotide-specific bovine brain phosphodiesterase). In words: Measurement of PDE1 inhibition in vitro using IMAP phosphodiesterase assay kit. In kind it is biochemical. The note with it: IMAP fluorescence polarization, FL-GMP substrate, bovine brain phosphodiesterase with calmodulin. An excerpt: Phosphodiesterase 1B (PDE1B) is a calcium/calmodulin dependent phosphodiesterase enzyme that converts cyclic guanosine monophosphate (cGMP) to 5′-guanosine monophosphate (5′-GMP). PDE1B can also convert a modified cGMP substrate, such as the fluorescent molecule cGMP-fluorescein, to the corresponding GMP-fluorescein. The generation of GMP-fluorescein from cGMP-fluorescein can be quantitated, using, for example, the IMAP (Molecular Devices, Sunnyvale, Calif.) immobilized-metal affinity particle reagent.
Briefly, the IMAP reagent binds with high affinity to the free 5′-phosphate that is found in GMP-fluorescein and not in cGMP-fluorescein. The resulting GMP-fluorescein—IMAP complex is large relative to cGMP-fluorescein. Small fluorophores that are bound up in a large, slowly tumbling, complex can be distinguished from unbound fluorophores, because the photons emitted as they fluoresce retain the same polarity as the photons used to excite the fluorescence.
In the phosphodiesterase assay, cGMP-fluorescein, which cannot be bound to IMAP, and therefore retains little fluorescence polarization, is converted to GMP-fluorescein, which, when bound to IMAP, yields a large increase in fluorescence polarization (Δmp). Inhibition of phosphodiesterase, therefore, is detected as a decrease in Δmp. […]
A decrease in GMP concentration, measured as decreased Δmp, is indicative of inhibition of PDE activity. […]

In the case of `CN1C(=O)c2c(nn(Cc3ccc(-c4ccccn4)cc3)c2Nc2ccccc2)N2C1=N[C@@H]1CCC[C@@H]12` [Example 1, (6aR,9aS)-5,6a,7,8,9,9a-hexahydro-5-methyl-3-(phenylamino)-2-((4-Pyridin-2yl)-benzyl)-cyclopent[4,5]imidazo[1,2-a]pyrazolo[4,3-e]pyrimidin-4(2H)-one], the IC50 came out at 0.105 nM.

(Values after patent US9849132B2, “Products and pharmaceutical compositions” (Intra-Cellular Therapies, Inc., priority 2014, dated 2017).)
